molecular target: T1, human PD-L1 / human PD-1 interaction (Homo sapiens, UniProt Q9NZQ7); experiment: ELISA of PD-1/PD-L1 interaction; format: binding
T1 construct: purchased R&D (PD-L1); ACRO Biosystems (PD-1, biotin)
Description: The activity of Compound 1.041 was assessed with an ELISA assay assessing the direct binding of recombinant PD-1 and PD-L1 proteins (FIG. 1A), a dimerization ELISA assay assessing the direct binding/dimerization of recombinant PD-L1 proteins (FIG. 1B), a cell based assay measuring the downstream signaling following the interaction of PD-1 and PD-L1 using a Luciferase reporter assay with cell lines overexpressing PD-1 and PD-L1 (FIG. 1C), and a mixed lymphocyte reaction assay measuring the functional outcome of upregulation of IFNg secretion, using allogenic primary human immune cells (FIG. 1D). Briefly, the mixed lymophocyte reaction assay was performed as follows: Dendritic cells and CD4+T Cells from unmatched donors were cultured together for 5 days in 96 well-flat bottom plates. Test compound was added as indicated at starting concentration of 1 μM with 1:4 dilutions with DMSO. Supernatants were harvested after 5 days of incubation and detection of human IFNg was performed by ELISA. […]
96 Well plates were coated with 1 μg/mL of human PD-L1 (obtained from R&D) in
PBS overnight at 4° C. The wells were then blocked with 2% BSA in PBS (WN) with 0.05% TWEEN-20 for 1 hour at 37° C. The plates were washed 3 times with PBS/0.05% TWEEN-20 and the compounds were serial diluted (1:5) in dilution medium and added to the ELISA plates. Human PD-1 and biotin 0.3μg/mL (ACRO Biosystems) were added and incubated for 1 hour at 37° C. then washed 3 times with PBS/0.05% TWEEN-20. A second block was performed with 2% BSA in PBS (WN)/0.05% TWEEN-20 for 10 min at 37° C. and was washed 3 times with PBS/0.05% TWEEN-20. Streptavidin—HRP was added for 1 hour at 37° C. then washed 3 times with PBS/0.05% TWEEN-20. TMB substrate was added and reacted for 20 min at 37° C. A stop solution (2 N aqueous H2SO4) was added. The absorbance was read at 450 nm using a micro-plate spectrophotometer.

T1 sequence (Q9NZQ7 19-239 limits assumed): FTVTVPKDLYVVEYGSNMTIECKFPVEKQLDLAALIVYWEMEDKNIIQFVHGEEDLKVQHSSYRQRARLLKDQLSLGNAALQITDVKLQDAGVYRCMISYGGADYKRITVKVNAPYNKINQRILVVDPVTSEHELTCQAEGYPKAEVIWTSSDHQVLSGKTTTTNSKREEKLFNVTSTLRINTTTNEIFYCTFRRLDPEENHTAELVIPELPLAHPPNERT

IC50, < 5 nM:
Cc1c(OCCCN2CCC(O)CC2)cccc1-c1cccc2c1CCC2Oc1cc(OCc2cc(C#N)cc(C#N)c2)c(CN[C@@H]2CCCC[C@@H]2O)cc1Cl (some centres unmarked)
Cc1c(OCCCN2CCC(O)CC2)cccc1-c1cccc2c1CC[C@@H]2Oc1cc(OCc2cncc(C#N)c2)c(CN[C@H](C(=O)O)[C@@H](C)O)cc1Cl
C[C@@H](O)[C@H](NCc1cc(Cl)c(O[C@H]2CCc3c(-c4cccc(OCCCN5CCC(O)CC5)c4F)cccc32)cc1OCc1cncc(C#N)c1)C(=O)O
C[C@@](CO)(NCc1cc(Cl)c(O[C@H]2CCc3c(-c4cccc(OCCCN5CCC(O)CC5)c4F)cccc32)cc1OCc1cncc(C#N)c1)C(=O)O
Cc1c(OCCCN2CCC(O)CC2)cccc1-c1cccc2c1CC[C@@H]2Oc1cc(OCc2cncc(C#N)c2)c(CN[C@H](C(N)=O)[C@@H](C)O)cc1Cl
Cc1c(OCCCN2CCC(O)CC2)cccc1-c1cccc2c1CC[C@@H]2Oc1cc(OCc2cncc(C#N)c2)c(CN[C@@H](CO)C(N)=O)cc1Cl
Cc1c(OCCCN2CCC(O)CC2)cccc1-c1cccc2c1CC[C@@H]2Oc1cc(OCc2cncc(C#N)c2)c(CN[C@H](C(=O)NS(C)(=O)=O)[C@@H](C)O)cc1Cl
Cc1c(OCCCN2CCC(O)CC2)cccc1-c1cccc2c1CC[C@@H]2Oc1cc(OCc2cncc(C#N)c2)c(CN2CCC(O)CC2)cc1Cl
Cc1c(OCCCN2CCC(O)CC2)cccc1-c1cccc2c1CC[C@@H]2Oc1cc(OCc2cncc(C#N)c2)c(CN2CC[C@H](O)C2)cc1Cl
CCOc1cc(O[C@H]2CCc3c(-c4cccc(OCCCN5CC[C@@H](O)C5)c4C)cccc32)c(Cl)cc1CNC(CO)CO
CCOc1cc(O[C@H]2CCc3c(-c4cccc(OCCCN5CC[C@@H](O)C5)c4C)cccc32)c(Cl)cc1CNC(C)(CO)CO
Cc1c(OCCCN2CCC(O)CC2)cccc1-c1cccc2c1CC[C@@H]2Oc1cc(OCc2cncc(C#N)c2)c(CN2CC[C@@H](O)C2)cc1Cl
Cc1c(OCCCN2CCC(O)CC2)cccc1-c1cccc2c1CC[C@@H]2Oc1cc(OCc2cncc(C#N)c2)c(CNCC2CCC(=O)N2)cc1Cl (some centres unmarked)
Cc1c(OCCCN2CCC(O)CC2)cccc1-c1cccc2c1CC[C@@H]2Oc1cc(OCc2cncc(C#N)c2)c(CNCC(C)(C)O)cc1Cl
Cc1c(OCCCN2CCC(O)CC2)cccc1-c1cccc2c1CC[C@@H]2Oc1cc(OCc2cncc(C#N)c2)c(CN2CC(C(=O)O)C2)cc1Cl
Cc1c(OCCCN2CCC(O)CC2)cccc1-c1cccc2c1CC[C@@H]2Oc1cc(OCc2cncc(C#N)c2)c(CN[C@@H]2CCCC[C@H]2O)cc1Cl
Cc1c(OCCCN2CCC(O)CC2)cccc1-c1cccc2c1CC[C@@H]2Oc1cc(OCc2cncc(C#N)c2)c(CN2CC(O)C2)cc1Cl
Cc1c(OCCCN2CCC(O)CC2)cccc1-c1cccc2c1CC[C@@H]2Oc1cc(OCc2cncc(C#N)c2)c(CNCc2cn(C)cn2)cc1Cl
Cc1c(OCCCN2CCC(O)CC2)cccc1-c1cccc2c1CC[C@@H]2Oc1cc(OCc2cncc(C#N)c2)c(CN[C@@H]2CCC[C@H]2O)cc1Cl
Cc1c(OCCCN2CCC(O)CC2)cccc1-c1cccc2c1CC[C@@H]2Oc1cc(OCc2cncc(C#N)c2)c(CNC2(C(=O)O)CCC2)cc1Cl
Cc1c(OCCCN2CCC(O)CC2)cccc1-c1cccc2c1CC[C@@H]2Oc1cc(OCc2cncc(C#N)c2)c(CN[C@@H](CNC(=N)N)C(=O)O)cc1Cl
Cc1c(OCCCN2CCC(O)CC2)cccc1-c1cccc2c1CC[C@@H]2Oc1cc(OCc2cncc(C#N)c2)c(CN2CCC(C)(O)CC2)cc1Cl
COC(=O)C1(O)CCN(CCCOc2cccc(-c3cccc4c3CC[C@@H]4Oc3cc(OCc4cncc(C#N)c4)c(CN[C@H](C(=O)O)[C@@H](C)O)cc3Cl)c2C)C1 (some centres unmarked)
Cc1c(OCCCN2CC(C)(O)C2)cccc1-c1cccc2c1CC[C@@H]2Oc1cc(OCc2cncc(C#N)c2)c(CNCC2CCC(=O)N2)cc1Cl (some centres unmarked)
Cc1c(OCCCN2C3CCC2CC(O)C3)cccc1-c1cccc2c1CC[C@@H]2Oc1cc(OCc2cncc(C#N)c2)c(CNCC2CCC(=O)N2)cc1Cl (some centres unmarked)
Cc1c(OCCCN2CCC(F)CC2)cccc1-c1cccc2c1CC[C@@H]2Oc1cc(OCc2cncc(C#N)c2)c(CNCC2CCC(=O)N2)cc1Cl (some centres unmarked)
Cc1c(OCCCN2CC(O)C2)cccc1-c1cccc2c1CC[C@@H]2Oc1cc(OCc2cncc(C#N)c2)c(CNCC2CCC(=O)N2)cc1Cl (some centres unmarked)
N#Cc1cncc(COc2cc(O[C@H]3CCc4c(-c5cccc(OCCCN6CCC(O)CC6)c5Cl)cccc43)c(Cl)cc2CNCC2CCC(=O)N2)c1 (some centres unmarked)
C[C@@H](O)[C@H](NCc1cc(Cl)c(O[C@H]2CCc3c(-c4cccc(OCCCN5CCC(O)CC5)c4Cl)cccc32)cc1OCc1cncc(C#N)c1)C(N)=O
Cc1c(OCCCN2CCC(O)CC2)cccc1-c1cccc2c1C[C@@H](F)[C@@H]2Oc1cc(OCc2cncc(C#N)c2)c(CN[C@@H](CO)C(=O)O)cc1Cl
Cc1c(OCCCN2CCC(O)CC2)cccc1-c1cccc2c1C[C@H](F)[C@@H]2Oc1cc(OCc2cncc(C#N)c2)c(CN[C@H](C(=O)O)[C@@H](C)O)cc1Cl
Cc1c(OCCCN2CCC(O)CC2)cccc1-c1cccc2c1C[C@H](F)[C@@H]2Oc1cc(OCc2cncc(C#N)c2)c(CN[C@@](C)(CO)C(=O)O)cc1Cl
Cc1c(OCCCN2CCC(O)CC2)cccc1-c1cccc2c1C[C@H](F)[C@@H]2Oc1cc(OCc2cncc(C#N)c2)c(CN[C@@H]2CCCC[C@@H]2O)cc1Cl
Cc1c(OCCCN2CC[C@H](F)C2)cccc1-c1cccc2c1CC[C@@H]2Oc1cc(OCc2cncc(C#N)c2)c(CN[C@@H]2CCCC[C@@H]2O)cc1Cl
Cc1c(OCCCN2CC[C@@H](F)C2)cccc1-c1cccc2c1CC[C@@H]2Oc1cc(OCc2cncc(C#N)c2)c(CN[C@@H]2CCCC[C@@H]2O)cc1Cl
CC(CO)(CO)NCc1cc(Cl)c(O[C@H]2CCc3c(-c4cccc(OCCCN5CCNC(=O)C5)c4Cl)cccc32)cc1OCc1cncc(C#N)c1
N#Cc1cncc(COc2cc(O[C@H]3CCc4c(-c5cccc(OCCCN6CCNC(=O)C6)c5Cl)cccc43)c(Cl)cc2CNC2(C(=O)O)CCC2)c1
N#Cc1cncc(COc2cc(O[C@H]3CCc4c(-c5cccc(OCCCN6CC7(CC(F)C7)C6)c5Cl)cccc43)c(Cl)cc2CN[C@@H]2CCCC[C@@H]2O)c1
N#Cc1cncc(COc2cc(O[C@H]3CCc4c(-c5cccc(OCCCN6CC7(C6)CC(F)(F)C7)c5Cl)cccc43)c(Cl)cc2CN[C@@H]2CCCC[C@@H]2O)c1
N#Cc1cncc(COc2cc(O[C@H]3CCc4c(-c5cccc(OCCCN6CC(F)C6)c5Cl)cccc43)c(Cl)cc2CN[C@@H]2CCCC[C@@H]2O)c1
Cc1c(OCCCNCC(C)(C)O)cccc1-c1cccc2c1CC[C@@H]2Oc1cc(OCc2cncc(C#N)c2)c(CNCC2CCC(=O)N2)cc1Cl (some centres unmarked)
